pEC50: −log10 of the molar value. “And” between values parts separate entries of the source, which are not always exact repeats. Identical values can stand only once.
Tests used:
HFL-1 cells [1] = assay: cADDis assay for cAMP (fluorescent biosensor) in HFL-1 fibroblasts; assay type: cell-based, human; conditions: for rightward shift of PGE2 responses induced by pretreatment: 24 h pretreatment with 100 nM of the agonist vs vehicle, Fig. 5b, n = 4; for leftward shift of PGE2 concentration-response curve (reversal of desensitization) by PDE inhibitor: 10 μM inhibitor, 10 min, Fig. 7a–c; for desensitization of β-AR (isoproterenol) cAMP responses by pretreatment: 24 h pretreatment with 100 nM PGE2 or 100 nM isoproterenol, Fig. 1d; for desensitization of PGE2 cAMP responses by pretreatment: 24 h pretreatment with 100 nM isoproterenol or 1 μM forskolin, Fig. 2a, Fig. 3; for pEC50: Homo sapiens, HFL1; for PGE2 maximal response: normalized to 1 μM forskolin plus 200 μM IBMX, Fig. 4 experiments
Description: HFL-1 fibroblasts (ATCC, Manassas, VA, USA) were grown in Ham’s F12K medium (Thermo Fisher Scientific, Waltham, MA, USA) with 10% fetal bovine serum (Atlanta Biologicals, Flowery Branch, GA, USA) and 1% antibiotic-antimycotic solution. Cells with a passage number of 13 to 25 were used and were grown to 70–90% confluency for all studies. Cells were grown in an incubator at 37 °C and 5% CO2 levels. Medium was aspirated and cells were washed once with PBS. After aspiration of PBS, 5 mL of 0.25% trypsin-EDTA (Thermo Fisher Scientific, Waltham, MA, USA) was added for 5 min to induce cell detachment. Media was added to the flask and gently mixed to suspend detached cells, transferred to tubes, centrifuged at 500g for 5 min, then washed to remove trypsin. The cell pellet was resuspended in growth medium, and approximately 9000 sells were plated per well on 96-well plates. Cells were pretreated with PGE2, other drugs, or vehicle prior to experiments by adding 10× concentration of drug to growth media. Medium was aspirated after 24 h, and each well was washed once with warm Dulbecco’s phosphate-buffered saline before performing cADDis assay for cAMP.
The cADDis assay was purchased from Montana Molecular (Bozeman, MT, USA). HFL-1 cells were incubated with a recombinant mammalianized baculovirus (BacMam) engineered to express a genetically modified protein that is a fusion of EPAC, a cAMP effector, with the green fluorescent protein (GFP). This protein serves as a convenient and quantitative cAMP sensor. In its unbound form, the protein fluoresces, but its fluorescence is quenched upon binding of cAMP. When seeding the cells in a 96-well plate, the following components were added: […] of cells plus media, 40 μL BacMam solution, and 2 μL of trichostatin A (an inhibitor of histone deacetylase) (Sigma®, St. Louis, MO, USA). In the 96-well plate format, approximately 8900 cells were seeded per well and 2.95 × 10^8 viral particles per well were added. Trichostatin A stock concentration was 100 μM, giving a final concentration of 1 μM in the final volume of 200 μL per well. Transduced HFL-1 cells were incubated for 24 h at 37 °C and 5% CO2 levels. After incubation, medium was aspirated and replaced with 180 μL per well of 1× Dulbecco’s phosphate-buffered saline without calcium and magnesium (Thermo Fisher Scientific, Waltham, MA, USA). The 96-well plate was then covered with aluminum foil and incubated at 37 °C for 30 min. The plate was placed in a SpectraMax M5 plate reader (Molecular Devices, San Jose, CA, USA), and fluorescence was read from the bottom of the plate with an excitation wavelength of 494 nm and an emission wavelength of 522 nm for 5 min. Once variability of fluorescence was ≤ 5% in all wells, different concentrations ofPGE2 or other agents were added with a multi-pipette and the changes in fluorescence were measured every 30 s for 30 min.
Data from kinetic studies of fluorescence were normalized to the original level of fluorescence (ΔF/F0) and then fit to a single-site decay model using GraphPad Prism 7.0 (GraphPad Software Inc., San Diego, CA, USA). The plateau of each decay curve was then used as the maximal response to that given concentration of drug (Emax), and concentration-response curves were generated using nonlinear regression analysis (log [agonist] vs. response, variable slope, four parameters) using GraphPad Prism 7.0. Concentration-response curves in multiple conditions were compared using two-way analysis of variance (2-way ANOVA) with Tukey’s multiple comparison test, and significance (p value) is reported for the effect of different conditions. Statistical comparison tests (t tests, 1-way and 2-way ANOVA) were performed using GraphPad Prism.

PDE = PDE activity assays in HFL-1 cell lysates ([3H]cAMP hydrolysis); assay type: biochemical, human; conditions: for bulk PDE activity vs vehicle: cells treated 24 h with 30 μM forskolin, 100 nM PGE2 or 1 μM isoproterenol, Fig. 6c; for PDE activity in lysates in presence of inhibitor: roflumilast 1 μM or IBMX 1 mM in the assay, vehicle-, PGE2- and isoproterenol-pretreated cells, Fig. 6d
PDE3B = assay: qRT-PCR of PDE3B mRNA after 24 h pretreatment; assay type: cell-based, human; conditions: 24 h pretreatment: 1 μM forskolin, 100 nM isoproterenol or 100 nM PGE2; Fig. 6a
Description: (§1) After 48-h incubation with the lentivirus, medium was aspirated, cells were washed once in 1× PBS, and buffer RLT was added to disrupt cell membranes. Cells were collected and RNA was isolated using RNeasy columns with a QIAcube robot (Qiagen). RNA was quantified using the NanoDrop 2000/2000c (Thermo Fisher). Reverse transcription was performed on 400 ng of RNA samples. All steps followed the SuperScript® III First-Strand Synthesis System for RT-PCR protocol (Thermo Fisher). The steps included a denaturation step at 65 °C for 5 min in the RNA/primer mixture, containing 50 ng/μL of random hexamers. Complementary DNA (cDNA) synthesis mixture was added to the RNA/primer mixture and incubated for 10 min at 25 °C, followed by 50 min at 50 °C. The reaction was terminated at 85 °C for 5 min, then chilled on ice. Finally, 1 μL of RNase H was added to each tube followed by incubation for 20 min at 37 °C. cDNA samples were either used immediately for quantitative reverse transcription polymerase chain reaction (qRT-PCR) experiments or stored at − 20 °C.
(§2) TaqMan® Gene Expression Assays (Thermo Fisher) were used for qRT-PCR reactions. The ratio of components for each reaction was as follows: 1 μL 20× TaqMan® Gene Expression Assay, 10 μL 2× TaqMan® Gene Expression Mater Mix, 4 μL cDNA (1 ng to 100 ng), and 5 μL of RNase-free water. The thermal cycler settings were as follows: step 1, 50 °C for 2 min; step 2, 95 °C for 10 min; step 3, 95 °C for 15 s; and step 4, 60 °C for 1 min. Steps 3 and 4 were repeated for a total of 40 cycles. The housekeeping genes GAPDH, β-actin, and CDKN1A were used to normalize for differences in RNA samples. PCR data were analyzed using the 2^[−ΔΔCt] method, where Ct is the cycle threshold.

PDE4B = assay: qRT-PCR of PDE4B mRNA after 24 h pretreatment; assay type: cell-based, human; conditions: 24 h pretreatment: 1 μM forskolin, 100 nM isoproterenol or 100 nM PGE2; Fig. 6a
Description: as §1, §2

PDE3A = assay: qRT-PCR of PDE3A mRNA after 24 h pretreatment; assay type: cell-based, human; conditions: 24 h pretreatment: 1 μM forskolin, 100 nM isoproterenol or 100 nM PGE2; Fig. 6a
Description: as §1, §2

PDE4D = assay: qRT-PCR of PDE4D mRNA after 24 h pretreatment; assay type: cell-based, human; conditions: 24 h pretreatment: 1 μM forskolin, 100 nM isoproterenol or 100 nM PGE2; Fig. 6a
Description: as §1, §2

EP2R = assay: qRT-PCR of EP2R mRNA after 24 h pretreatment; assay type: cell-based, human; conditions: 24-h pretreatment with 100 nM PGE2; Fig. 6a
Description: TaqMan® Gene Expression Assays (Thermo Fisher) were used for qRT-PCR reactions. […] PCR data were analyzed using the 2^[−ΔΔCt] method, where Ct is the cycle threshold.

HFL-1 cells [2] = assay: Assay of basal cAMP (EIA of TCA extracts); assay type: cell-based, human; conditions: cells pretreated with 100 nM PGE2 for 24 h; not significant vs vehicle (p = 0.815)
Description: HFL-1 cells were washed three times with serum- and NaHCO3-free DMEM supplemented with 20 mM HEPES, pH 7.4 (DMEH), then incubated for 30 min at 37 °C. Medium was aspirated, and 250 μL of trichloroacetic acid (TCA, 7.5% w/v) was added to each well. cAMP content in TCA extracts was determined by EIA (Cayman Chemical) following the manufacturer’s instructions. The amount of cAMP was normalized to the amount of protein per sample as determined using a dye-binding protein assay (Bio-Rad).

[3] = acute cAMP increase, no pretreatment, Fig. 5a
[4] = cells pretreated with 100 nM PGE2 for 24 h

## C=CCC1([C@@H](O)C/C=C/[C@@H]2[C@@H](C/C=C\CCCC(=O)O)[C@H](Cl)C[C@H]2O)CCC1 [ONO-AE1–259]
HFL-1 cells [1]
  rightward shift of PGE2 responses induced by pretreatment: 4.0 ± 1.2 fold and 4 fold
HFL-1 cells [1]; [3]
  log EC50: −8.29

## COc1ccc(C2CNC(=O)C2)cc1OC1CCCC1 (stereo not drawn) [rolipram]
HFL-1 cells [1]; [4]
  leftward shift of PGE2 concentration-response curve (reversal of desensitization) by PDE inhibitor: 2.8 fold
HFL-1 cells [1]; 10 μM rolipram, cells pretreated with 100 nM PGE2 for 24 h, Fig. 7d
  effect on isoproterenol cAMP responses: had no effect

## CC(C)NCC(O)c1ccc(O)c(O)c1 (stereo not drawn) [isoproterenol]
HFL-1 cells [1]; Fig. 2b
  desensitization of β-AR (isoproterenol) cAMP responses by pretreatment: induces desensitization of β-AR responses
HFL-1 cells [1]
  desensitization of PGE2 cAMP responses by pretreatment: does not decrease responses to PGE2
HFL-1 cells [1]; acute isoproterenol cAMP response, 24 h pretreatment with 100 nM isoproterenol, Fig. 2b
  pEC50: 8.65
PDE
  bulk PDE activity vs vehicle: does not
PDE3B
  PDE3B mRNA expression: Significant upregulation
PDE4B
  PDE4B mRNA expression, fold change over vehicle: 1.3 fold
PDE3A
  PDE3A mRNA expression, fold change over vehicle: no effect
PDE4D
  PDE4D mRNA expression, fold change over vehicle: 5.0 fold

## CC(C)Cn1c(=O)n(C)c(=O)c2[nH]cnc21 [IBMX, 3-isobutyl-1-methylxanthine]
HFL-1 cells [1]; [4]
  leftward shift of PGE2 concentration-response curve (reversal of desensitization) by PDE inhibitor: small leftward shift that was not statistically significant
PDE
  PDE activity in lysates in presence of inhibitor: significantly reduced PDE activity

## O=C(Nc1c(Cl)cncc1Cl)c1ccc(OC(F)F)c(OCC2CC2)c1 [roflumilast]
PDE
  PDE activity in lysates in presence of inhibitor: significantly reduced PDE activity

## CCOc1c2c(c(OCC)c3ccccc13)C(=O)N(c1ccc(CC(=O)NS(=O)(=O)c3ccccc3)cc1)C2 [GW-627368X]
HFL-1 cells [1]; antagonist 100 nM, cells pretreated with 100 nM PGE2 for 24 h, Fig. 4
  shift of PGE2 concentration-response curve by antagonist: did not
HFL-1 cells [1]; antagonist 100 nM, vehicle-pretreated cells
  rightward shift of PGE2 concentration-response curve by antagonist: did not cause a rightward shift

## O=C1CCc2cc(OCCCCc3nnnn3C3CCCCC3)ccc2N1 [cilostazol]
HFL-1 cells [1]; [4]
  leftward shift of PGE2 concentration-response curve (reversal of desensitization) by PDE inhibitor: had no effect

## CCCCC[C@H](O)/C=C/[C@H]1[C@H](O)CC(=O)[C@@H]1C/C=C\CCCC(=O)O [PGE2, prostaglandin E2]
HFL-1 cells [1]; Fig. 2b
  desensitization of β-AR (isoproterenol) cAMP responses by pretreatment: does not cause desensitization
HFL-1 cells [1]
  rightward shift of PGE2 responses induced by pretreatment: 8.0 ± 2.2 fold
HFL-1 cells [1]; acute PGE2 cAMP response, 24 h vehicle pretreatment, Table 1/Fig. 1c, mean ± SEM n = 3–10
  pEC50: 7.40
HFL-1 cells [1]; [3]
  pEC50: 8.48
HFL-1 cells [1]; PGE2-pretreated cells (100 nM, 24 h)
  PGE2 maximal response: 0.60 ± 0.09
HFL-1 cells [1]; PGE2 response after 24 h pretreatment with 1, 10 or 100 nM PGE2 vs vehicle
  Emax: None of the pretreatment conditions produced a significant reduction
HFL-1 cells [1]; vehicle-pretreated cells
  PGE2 maximal response: 1.06 ± 0.10
PDE
  bulk PDE activity vs vehicle: significantly increased PDE activity
PDE; cells treated with 100 nM PGE2 from 5 min to 24 h, after 6 h or more
  bulk PDE activity vs vehicle, time course: significant increases
PDE3B
  PDE3B mRNA expression: Significant upregulation
PDE4B
  PDE4B mRNA expression, fold change over vehicle: 2.6 fold
EP2R
  EP2R mRNA levels: did not observe any change
PDE3A
  PDE3A mRNA expression, fold change over vehicle: 7.3 fold
PDE4D
  PDE4D mRNA expression, fold change over vehicle: 22.3 fold
HFL-1 cells [2]
  basal cAMP level: 57.9 ± 13.8 fmol/mg protein

## C=C[C@@]1(C)CC(=O)[C@]2(O)[C@@]3(C)[C@@H](O)CCC(C)(C)[C@@H]3[C@H](O)[C@H](OC(C)=O)[C@@]2(C)O1 [forskolin]
HFL-1 cells [1]
  desensitization of PGE2 cAMP responses by pretreatment: did not cause desensitization of PGE2 responses
PDE
  bulk PDE activity vs vehicle: significantly increased PDE activity
PDE3B
  PDE3B mRNA expression: Significant upregulation
PDE4B
  PDE4B mRNA expression, fold change over vehicle: 3.9 fold
PDE3A
  PDE3A mRNA expression, fold change over vehicle: no effect
PDE4D
  PDE4D mRNA expression, fold change over vehicle: 7.9 fold

From paper PMC7328663, “Agonist-specific desensitization of PGE2-stimulated cAMP signaling due to upregulated phosphodiesterase expression in human lung fibroblasts” (Naunyn-Schmiedeberg's archives of pharmacology, 2019)
